Residues, ends and D or L forms follow the SMILES beside them. *: point of attachment. Cbz = O=C(OCc1ccccc1)*; CH2F = FC*
Assays:
[1] = tested on: 293T cells transfected with NK1R; assay: SP-induced, NK1R-mediated cell death in 293T cells transfected with NK1R, trypan blue and staining; assay type: cell-based, human; settings: caspase inhibitors at 50 μM
Method: (§1) Human embryonic kidney 293T cells were grown as described in Example I. Transient transfection was performed using Superfect (Qiagen) as described by the manufacturer. Briefly, 2×10^5 cells/well were seeded into 35 mm wells 16 hr prior to transfection. Superfect:DNA complexes were added at a 5 μl:2 μg ratio for 3 hr; then the medium was replaced and after 24 hr SP was added. At 24–48 hr after addition of SP cell death was quantified as follows: the media containing floating cells were collected and centrifuged 10 min at 2000×g, the pellet was resuspended in PBS/trypan blue and the cells were counted using a hematocytometer. When other compounds were used, they were added at the same time as SP: zVAD.fmk or BAF was added at 50 μM and obtained from Enzyme System Products, Livermore, Calif.
Briefly, the method entailed cloning the full-length (1.2 kb) NK1R cDNA (Genbank Accession No. M31477) by RT-PCR from adult rat hippocampal RNA into the XbaI/EcoRI sites of the vector pcDNA3.1 (Invitrogen), using the following oligonucleotides: forward 5′[…] 3′ (SEQ ID NO:2); reverse 5′[…] 3′ (SEQ ID NO:3).
Cells were stained according to the manufacturer's instructions (Clontech). Briefly, cellswere washed with binding buffer and incubated with FITC-Annexin-V or EGFPAnnexin-V for 5–10 min and fixed with 4% paraformaldehyde.
Cells were fixed 10 min with 4% paraformaldehyde and stained according to the manufacturer's instructions (Promega).
(§2) The protein kinase inhibitors were added 30 min before SP exposure at the following concentrations: 10 μM Rp-8-Br-cAMPS (adenosin 3′,5′-cyclic monophosphorothioate, 8-bromo-, Rp-isomer, sodium salt) which is a PKA inhibitor; 50 nM Calphostin C, which is a PKC inhibitor; 10 μM PD 98059 which is a MAPKK (MEK) inhibitor. These compounds were obtained from Calbiochem. Viability was quantified by trypan blue staining of the total cell population.

paraptosis = settings: cited from earlier work
[2] = tested on: striatal, cortical, and hippocampal neurons; assay: SP-induced cell death in primary striatal, cortical and hippocampal neurons, trypan blue viability and staining; assay type: cell-based, rat; settings: caspase inhibitors at 50 μM
Method: Rat neuronal primary cell cultures were also used to assay for inducers and inhibitors of paraptosis. Briefly, primary striatal, cortical and hippocampal cultures were prepared from 17-day-old Sprague-Dawley rat embryos (B&K). The tissue was dissected, minced and trypsinized for five minutes using 0.25% trypsin (Cell Grow). After the addition of 10% horse serum (Life Technologies) to inhibit the trypsin, the cell suspension was triturated 15–20 times with a 10 ml syringe and centrifuged for five minutes at 800×g. The pellet was resuspended in MEM-PAK (UCSF Cell Culture facility), supplemented with 2.02 gm glucose, 2 mM GLUTAMAX™ (Life Technologies) and penicillin/streptomycin (100 U/ml). The suspension was filtered through a […] cell strainer and the final culture medium contained 5% horse serum. Subsequently, 3-4×10^5 cells per Cm^2 were seeded onto either poly-D-lysine precoated 8-well chamber slides (Becton-Dickson Labware) or 96 well plates precoated with […] of poly-D-lysine (Sigma) in water. After 30 minutes of incubation time, unattached cells were removed together with the medium and replaced with glucose enriched MEM-PAK plus 5% horse serum. The cultures were then incubated at 37° C. in 95% air 5% carbon dioxide with 95% humidity. Cultures were used for experiments between day 1 and day 7 when glial contamination was at a minimum.
Primary neuronal cells were prepared as described in Example I. SP (SIGMA) at a concentration of 0.1 nM–100 μM was added 24–48 hrs after seeding, in the presence of 2.5% horse serum. When the cultures were maintained for more than 5 days, 10 μM cytosine arabinoside was added for 24 hours, beginning 3 days after plating the cells. Viability was quantified by trypan blue staining of the total cell population.
The following compounds were added at the same time as SP in the indicated experiments: 5 nM L-732, 138; 1 nM L-733,060; 1 μg/ml Actinomycin D or 1 μg/ml Cycloheximide. All of these compounds were obtained from SIGMA. The caspase inhibitors zVAD.fmk and BAF were added at 50 μM and obtained from Enzyme System Products, Livermore, Calif.
Either neuronal primary cultures or human embryonic kidney 293T cells were fixed with 4% paraformaldehyde and stained with 0.5 μg/ml DAPI (Molecular Probes) or Hoechst(SIGMA). […]
as §2

[3] = tested on: caspase-8 transfected cells; assay: Apoptosis induced by over-expression of caspase-8 in 293T cells; assay type: cell-based, human; settings: caspase inhibitors at 50 μM
Method: as §1

[4] = tested on: paraptosis induced by caspase 7, caspase 8 or caspase 9; assay: Inhibition of paraptosis induced by caspases; assay type: cell-based
Method: Test compounds were added to IGFIR-IC transfected 293T cells at the time of transfection.

293T cells = assay: Induction of paraptosis in 293T cells, LDH cell death assay; assay type: cell-based, human
Method: Human embryonic kidney 293T cell line cells were used to assay for inducers and inhibitors of paraptosis. These cells were cultured in high glucose DMEM (Life Technologies) supplemented with 10% FBS (Sigma) and 1% penicillin/streptomycin (Life Technologies). The cultures were incubated at 37° C. in 95% air 5% carbon dioxide with 95% humidity.
(§3) Subsequently, compounds were added to 293T cells and/or rat neuronal primary cell culture cells in order to determine if the compounds could induce paraptosis. Cell death was assayed using the lactate dehydrogenase (LDH) assay, in which the relative amount of enzyme released from dying cells in the medium is measured by following the disappearance of nicotinamide adenine dinucleotide, reduced form (NADH) in the following reaction: pyruvate+NADH <−>NAD^++ lactate. Briefly, 50 μl of culture medium for either 293T cells or 100 μl of culture medium for neuronal primary culture were dispensed in a 96 well plate to which 100 μl of a solution consisting of 5 mg of NADH dissolved in 20 ml of PBS and 0.5 ml of 100 mM NaPyruvate. NADH disappearance was assessed by kinetic photmetric readings at a 340 nm wavelength at 19 minute intervals over a period of 2 hours and 30 minutes.
Constructs of pcDNA3 containing procaspase-7 or procaspase-8 were transiently transfected into 293T cells using Lipofect-Amine (GIBCO-BRL) according to the manufacturer's instructions. Briefly, 1×10^6 293T cells were seeded in 6 cm dishes, and transfected the next day using a ratio of DNA:Lipofect-Amine of 1 μg:5 μl. Transfection efficiency was 60–80% for 293T cells, as determined by X-gal staining after transfection of a β-galactosidase construct.

[5] = tested on: rat neuronal primary cell cultures; assay: Induction of paraptosis in rat neuronal primary cell cultures, LDH cell death assay; assay type: cell-based
Method: Rat neuronal primary cell cultures were also used to assay for inducers and inhibitors of paraptosis. Briefly, primary striatal, cortical and hippocampal cultures were prepared from 17-day-old Sprague-Dawley rat embryos (B&K). The tissue was dissected, minced and trypsinized for five minutes using 0.25% trypsin (Cell Grow). After the addition of 10% horse serum (Life Technologies) to inhibit the trypsin, the cell suspension was triturated 15–20 times with a 10 ml syringe and centrifuged for five minutes at 800×g. The pellet was resuspended in MEM-PAK (UCSF Cell Culture facility), supplemented with 2.02 gm glucose, 2 mM GLUTAMAX™ (Life Technologies) and penicillin/streptomycin (100 U/ml). […]
as §3, with “Briefly, 50 μl of culture medium for either 293T cells or 100 μl of culture medium for neuronal primary culture were dispensed in a 96 well plate to which 100 μl of a solution consisting of 5 mg of NADH dissolved in 20 ml of PBS and 0.5 ml of 100 mM NaPyruvate.” left out

[6] = tested on: caspases, calpains, proteasome; assay: Protease activation during SP-induced cell death, substrate hydrolysis in cytosolic extracts of NK1R-transfected 293T cells; assay type: biochemical, human; settings: added to cytosolic extract of NK1R-transfected 293T cells
Method: Preparation of cell-free extract for kinetic studies: 293T cells seeded at the density of 2 million cells per 10 cm dish were transfected with NK1R cDNA using Lipofectamine 2000 (Gibco) according the instructions provided by the manufacturer. After 24 hr 10 nM SP was added to half of the culture dishes. At 24 hr later the cells were washed with ice cold PBS and collected with a cell scraper. The cells pelleted at 700×g for 4 min were resuspended in cell lysis buffer at pH 7.4 containing 1 mM dithiothreitol at a ratio of 1:1 (v/v). After 30 min on ice the swelled cells were disrupted with 20 strokes using a 27 gauge needle and further spun at 16,000×g for 30 min. The pellet was discarded and the supernatant which represents the cytosolic fraction was aliquoted and stored at −80° C. or used in the kinetic studies. The protein concentration was determined using the Bradford assay (Pierce).
For kinetic studies, the proteolytic activities were followed fluorometrically by monitoring AFC or AMC release from 100 μM of the corresponding substrates (Enzyme Systems Products): Caspase-1 like, Ac-YVAD-AFC; caspase-2, Ac-VDVAD-AFC; caspases-3 like, Ac-DEVD-AFC; caspase-6, Ac-VEID-AFC; caspase-8, Ac-IETD-AFC; caspase-9, Ac-LEHD-AFC. Calpain activity was monitored with 100 μM Suc-LY-AFC (succinyl-Leu-Tyr-7-amino-4-methylcoumarin, Enzyme Systems Products) at 5 μM and 5 mM CaCl2. The chymotrypsin activity of the proteasome was followed with 100 μM Suc-LLVY-AFC (succinyl-Leu-Leu-Val-Tyr-7-amino-4-methylcoumarin, Enzyme Systems Products), and cathepsins were assayed using 20 μM Z-FR-AMC (Benzyloxycarbonyl-Phe-Arg-7-amino-4-methylcoumarin, Bachem). A 10 μl aliquot of extract in the presence or absence of SP was added to 90 μl of substrate at the appropriate concentration and pH. The reaction was continuously monitored during 30 min and 37° C. in a fluorescence microplate reader (Molecular Devices). The instrument was set at excitation and emission wavelengths of 405 and 510 for AFC releasing group, and 370 and 460 nm, for AMC releasing group, respectively. The steady-state hydrolysis rates were obtained from the linear part of the curves.

For COC(=O)CC(NC(=O)OC(C)(C)C)C(=O)CF (centres unmarked) [BAF, Box-aspartyl.fmk], the “effect on NK1R-mediated cell death in 293T cells” value [1] is given as “lack of effect”, the “effect of caspase inhibitors on paraptosis” value (from here on “effect of caspase inhibitors”) (paraptosis) is given as “lack of effect” and the “effect on SP-induced cell death in neurons” value [2] is given as “not inhibited”. The “effect on apoptosis induced by over-expression of caspase-8” value [3] was “completely abolished” and the “inhibition of paraptosis induction by caspase-7 and caspase-8” value (“inhibition of paraptosis induction” for short) [4] was “subject to inhibition”.

With CCCCCCCCCCCCC/C=C/[C@@H](O)[C@H](CO)NC(C)=O [C2 ceramide, N-Acetyl-D-sphingosine] the “concentration at which found to induce paraptosis” value (“concentration at which found” for short) (293T cells; 293T cells) was 15 to 100 µM and the “concentration at which found” value [5] was 15 to 100 µM.

For N[C@@H](CCC(=O)O)C(=O)O [Glutamic Acid, (S)-2-aminopentanedioic acid], the “concentration at which found” value [5] was 50 to 500 µM.

In the case of COC(=O)C[C@H](NC(=O)[C@H](C)NC(=O)[C@@H](NC(=O)OCc1ccccc1)C(C)C)C(=O)CF [zVAD.fmk] (Cbz-Val-Ala-Asp(OMe)-CH2F), the “effect on NK1R-mediated cell death in 293T cells” value [1] is listed as “lack of effect”, the “effect of caspase inhibitors” value (paraptosis) is listed as “lack of effect” and the “effect on SP-induced cell death in neurons” value [2] is listed as “not inhibited”. For the same molecule, the “effect on apoptosis induced by over-expression of caspase-8” value [3] was “completely abolished” and the “inhibition of paraptosis induction” value [4] was “subject to inhibition”.

In the case of “granzyme B: serine protease that activates procaspase-3”, the “increase of DEVDase activity” value [6] is reported as 7 fold.

B1: procaspase-8: procaspase-8 expressed in 293T cells from a pcDNA3 construct (protein, UniProt Q14790 1-479, looked up)
pro-form: MDFSRNLYDIGEQLDSEDLASLKFLSLDYIPQRKQEPIKDALMLFQRLQEKRMLEESNLSFLKELLFRINRLDLLITYLNTRKEEMERELQTPGRAQISAYRVMLYQISEEVSRSELRSFKFLLQEEISKCKLDDDMNLLDIFIEMEKRVILGEGKLDILKRVCAQINKSLLKIINDYEEFSKERSSSLEGSPDEFSNGEELCGVMTISDSPREQDSESQTLDKVYQMKSKPRGYCLIINNHNFAKAREKVPKLHSIRDRNGTHLDAGALTTTFEELHFEIKPHDDCTVEQIYEILKIYQLMDHSNMDCFICCILSHGDKGIIYGTDGQEAPIYELTSQFTGLKCPSLAGKPKVFFIQACQGDNYQKGIPVETDSEEQPYLEMDLSSPQTRYIPDEADFLLGMATVNNCVSYRNPAEGTWYIQSLCQSLRERCPRGDDILTILTEVNYEVSNKDDKKNMGKQMPQPTFTLRKKLVFPSD
modifications: pro-form
notes: procaspase-8 expressed in 293T cells from a pcDNA3 construct
In the case of B1, the “induction of paraptosis when expressed” value (293T cells; pcDNA3 construct transiently transfected into 293T cells) is reported as “able to induce paraptosis”.

B2: p35: caspase inhibitor (protein, UniProt P08160 1-299, looked up)
Early 35 kDa protein: MCVIFPVEIDVSQTIIRDCQVDKQTRELVYINKIMNTQLTKPVLMMFNISGPIRSVTRKNNNLRDRIKSKVDEQFDQLERDYSDQMDGFHDSIKYFKDEHYSVSCQNGSVLKSKFAKILKSHDYTDKKSIEAYEKYCLPKLVDERNDYYVAVCVLKPGFENGSNQVLSFEYNPIGNKVIVPFAHEINDTGLYEYDVVAYVDSVQFDGEQFEEFVQSLILPSSFKNSEKVLYYNEASKNKSMIYKALEFTTESSWGKSEKYNWKIFCNGFIYDKKSKVLYVKLHNVTSALNKNVILNTIK
In the case of B2, the “effect of caspase inhibitors” value (paraptosis) is listed as “lack of effect” and the “inhibition of paraptosis induction” value [4] is listed as “subject to inhibition”.

From patent US6994981B2, “Modulators of paraptosis and related methods” (The Buck Institute, priority 2002, dated 2006)
